# Laboratory results taken from patent US9730445B2, “Herbicidal compositions comprising 4-amino-3-chloro-5-fluoro-6-(4-chloro-2-fluoro-3-methoxyphenyl) pyridine-2-carboxylic acid or a derivative thereof and fungicides” (DOW AGROSCIENCES LLC, priority 2013, dated 2017).
# Experiments:
# CYPIR = test: Postemergence foliar-applied weed control, direct-seeded rice (greenhouse); type: in vivo, Cyperus iria L. (rice flatsedge); details: 22 DAA, r22-23 ester 16/32 g ae/ha alone, r24-26 azoxystrobin 62.5/125/250 g ai/ha alone, r27-32 ester 16/32 at each of 62.5, 125, 250
# Experimental: (§1) Seeds or nutlets of the desired test plant species were planted in a soil matrix prepared by mixing aloam or sandy loam soil (e.g., 28.6 percent silt, 18.8 percent clay, and 52.6 percent sand, with a pH of about 5.8 and an organic matter content of about 1.8 percent) and calcareous grit in an 80 to 20 ratio. The soil matrix was contained in plastic pots with a volume of 1 quart and a surface area of 83.6 square centimeters (cm^2). […] The plants were grown for 8-22 days in a greenhouse with an approximate 14 hour (h) photoperiod which was maintained at about 29° C. during the day and 26° C. during the night. Nutrients (Peters Excel® 15-5-15 5-Ca 2-Mg and iron chelate) were applied in the irrigation solution as needed and water was added on a regular basis. Supplemental lighting was provided with overhead metal halide 1000-Watt lamps as necessary. The plants were employed for testing when they reached the first through fourth true leaf stage.
# (§2) Treatments consisted of the acid or esters of 4-amino-3-chloro-5-fluoro-6-(4-chloro-2-fluoro-3-methoxy-phenyl)pyridine-2-carboxylic acid (Compound A), each formulated as an SC (suspension concentrate), and various fungicidal components alone and in combination. Forms of compound A were applied on an acid equivalent basis.
# (§3) For treatments comprised of formulated compounds, measured amounts of compounds were placed individually in 25 mL glass vials and diluted in a volume of 1.25% volume per volume (v/v) Agri-Dex® crop oil concentrate to obtain 12× stock solutions. […] Application solutions were prepared by adding an appropriate amount of each stock solution (e.g., 1 mL) and diluted to the appropriate final concentrations with the addition of […] of an aqueous mixture of 1.25% (v/v) crop oil concentrate so that the final spray solutions contained 1.25+/−0.05% (v/v) crop oil concentrate.
# (§4) For treatments comprised of technical compounds, weighed amounts can be placed individually in 25 mL glass vials and dissolved in a volume of 97:3 volume per volume (v/v) acetone/dimethyl sulfoxide (DMSO) to obtain 12× stock solutions. […] When technical materials are used, the concentrated stock solutions can be added to the spray solutions so that the final acetone and DMSO concentrations of the application solutions are 16.2% and 0.5%, respectively.
# (§5) As required, additional water and/or 97:3 v/v acetone/DMSO was added to individual application solutions so that the final acetone and DMSO concentrations of the application solutions being compared were 8.1% and 0.25%, respectively
# (§6) All stock solutions and applications solutions were visually inspected for compound compatibility prior to application. Spray solutions were applied to the plant material with an overhead Mandel track sprayer equipped with 8002E nozzles calibrated to deliver 187 L/ha over an application area of 0.503 square meters (m^2) at a spray height of 18 to 20 inches (46 to 50 cm) above average plant canopy height. Control plants were sprayed in the same manner with the solvent blank.
# (§7) The treated plants and control plants were placed in a greenhouse as described above and watered by sub-irrigation to prevent wash-off of the test compounds. After approximately 3 weeks, the condition of the test plants as compared with that of the untreated plants was determined visually and scored on a scale of 0 to 100 percent where 0 corresponds to no injury or growth inhibition and 100 corresponds to complete kill.
# (§8) Colby's equation was used to determine the herbicidal effects expected from the mixtures (Colby, S. R. Calculation of the synergistic and antagonistic response of herbicide combinations. Weeds 1967, 15, 20-22.).
# (§9) The following equation was used to calculate the expected activity of mixtures containing two active ingredients, A and B: Expected=A+B−(A×B/100)
# DIGSA = test: as above; type: in vivo, Digitaria sanguinalis (L.) Scop. (large crabgrass); details: 21 DAA
# Excerpt: (§10) Seeds or nutlets of the desired test plant species were planted in a soil matrix prepared by mixing aloam or sandy loam soil (e.g., 28.6 percent silt, 18.8 percent clay, and 52.6 percent sand, with a pH of about 5.8 and an organic matter content of about 1.8 percent) and calcareous grit in an 80 to 20 ratio. The soil matrix was contained in plastic pots with a volume of 1 quart and a surface area of 83.6 square centimeters (cm^2). When required to ensure good germination and healthy plants, a fungicide treatment and/or other chemical or physical treatment was applied. The plants were grown for 8-22 days in a greenhouse with an approximate 14 hour (h) photoperiod which was maintained at about 29° C. during the day and 26° C. during the night. Nutrients (Peters Excel® 15-5-15 5-Ca 2-Mg and iron chelate) were applied in the irrigation solution as needed and water was added on a regular basis. Supplemental lighting was provided with overhead metal halide 1000-Watt lamps as necessary. The plants were employed for testing when they reached the first through fourth true leaf stage.
# as §2
# (§11) Treatment requirements were calculated based upon the rates being tested, the concentration of active ingredient or acid equivalent in the formulation and a 12 milliliter (mL) application volume at a rate of 187 liters per hectare (L/ha).
# as §3, §4, §5, §6
# as §7, with “kill. […]” for “kill.”
# BRAPP = test: as above; type: in vivo; details: 22 DAA, r38-40 ester 8/16/32 g ae/ha alone, r41-42 azoxystrobin 125/250 g ai/ha alone, r43-48 ester 8/16/32 at each of 125, 250
# Excerpt: as §10, §2, §11, §3, §4, §5, §6
# as §7, with “kill. […]” for “kill.”
# IPOHE = test: as above; type: in vivo, Ipomoea hederacea (L.) Jacq. (ivyleaf morningglory)
# Experimental: as §1, §2, §3, §4, §5, §6, §7, §8, §9
# ECHCO = test: as above; type: in vivo, Echinochloa colonum (L.) LINK (junglerice); details: 19 DAA, r9-11 ester 8/16/32 g ae/ha alone
# Excerpt: as §10, §2, §11, §3, §4, §5, §6
# as §7, with “kill. […]” for “kill.”
# CYPRO = test: In-water applied weed control, transplanted paddy rice (greenhouse); type: in vivo, Cyperus rotundus L. (purple nutsedge); details: 22 DAA
# Experimental: Weed seeds or nutlets of the desired test plant species were planted in puddled soil (mud) prepared by mixing a shredded, non-sterilized mineral soil (50.5 percent silt, 25.5 percent clay, and 24 percent sand, with a pH of about 7.6 and an organic matter content of about 2.9 percent) and water at a 1:1 volumetric ratio. The prepared mud was dispensed in 365 mL aliquots into 16-ounce (oz.) non-perforated plastic pots with a surface area of 86.59 square centimeters (cm^2) leaving a headspace of 3 centimeters (cm) in each pot. Rice seeds were planted in Sun Gro MetroMix® 306 planting mixture, which typically has a pH of 6.0 to 6.8 and an organic matter content of about 30 percent, in plastic plug trays. Seedlings at the second or third leaf stage of growth were transplanted into 860 mL of mud contained in 32-oz. non-perforated plastic pots with a surface area of 86.59 cm^2 4 days prior to herbicide application. The paddy was created by filling the headspace of the pots with 2.5 to 3 cm of water. When required to ensure good germination and healthy plants, a fungicide treatment and/or other chemical or physical treatment was applied. The plants were grown for 4-22 days in a greenhouse with an approximate 14 hour (h) photoperiod which was maintained at about 29° C. during the day and about 26° C. during the night. Nutrients were added as Osmocote® (17:6:10, N:P:K+minor nutrients) at 2 g per cup. Water was added on a regular basis to maintain the paddy flood, and supplemental lighting was provided with overhead metal halide 1000-Watt lamps as necessary. The plants were employed for testing when they reached the first through fourth true leaf stage.
# as §2, with “(compound A)” for “(Compound A),”, “concentrate)” for “concentrate),”
# Treatment requirements for each compound or fungicidal component were calculated based upon the rates being tested, the concentration of active ingredient or acid equivalent in the formulation, an application volume of 2 mL per component per pot, and an application area of 86.59 cm^2 per pot.
# For formulated compounds, a measured amount was placed in an individual 100 or 200 mL glass vial and was dissolved in a volume of 1.25% (v/v) Agri-Dex® crop oil concentrate to obtain application solutions.
# For technical grade compounds, a weighed amount was placed in an individual 100 to 200 mL glass vial and dissolved in a volume of acetone to obtain concentrated stock solutions.
# Applications were made by injecting with a pipetter appropriate amounts of the application solutions, individually and sequentially, into the aqueous layer of the paddy. Control plants were treated in the same manner with the solvent blank. Applications were made so that all treated plant material received the same concentrations of acetone and crop oil concentrate.
# as §7, with “water was added as needed” for “watered by sub-irrigation”, “maintain a paddy flood.” for “prevent wash-off of the test compounds.”, “weeks” for “weeks,”
# as §8, §9
# LEFCH = test: Postemergence foliar-applied weed control, direct-seeded rice (greenhouse); type: in vivo, Leptochloa chinensis (L.) Nees (Chinese sprangletop)
# Experimental: as §1, §2, §3, §4, §5, §6, §7, §8, §9
# ECHCG = test: as above; type: in vivo, Echinochloa crus-galli (L.) P. Beauv. (barnyardgrass); details: r10-11 ester 8/16 g ae/ha alone, r12-14 phthalide 100/200/300 g ai/ha alone, r15-20 ester 8/16 at each of 100, 200, 300
# Experimental: as §1, §2, §3, §4, §5, §6, §7, §8, §9
# [1] = r9-11 acid 5.3/10.6/21.2 g ae/ha alone, r12 azoxystrobin 250 g ai/ha alone, r13-15 acid 5.3/10.6/21.2 + 250
# [2] = r10-12 ester 4.38/8.75/17.5 g ae/ha alone, r13 azoxystrobin 250 g ai/ha alone, r14-16 ester 4.38/8.75/17.5 + 250
# [3] = r9-11 acid 5.3/10.6/21.2 g ae/ha alone, r12 myclobutanil 250 g ai/ha alone, r13-15 acid 5.3/10.6/21.2 + 250
compound,measurement,setting,value
"CO/C=C(/C(=O)OC)c1ccccc1Oc1cc(Oc2ccccc2C#N)ncn1 [Azoxystrobin, methyl (2E)-2-{2-[6-(2-cyanophenoxy)pyrimidin-4-yloxy]phenyl}3-methoxyacrylate, reference compound]",Visual Weed Control (%) - 22 DAA CYPIR Obs,CYPIR,0%
same,Visual Weed Control (%) - 21 DAA DIGSA Obs,DIGSA; [1],0%
same,Visual Weed Control (%) - 21 DAA DIGSA Obs,DIGSA; [2],0%
same,Visual Weed Control (%) - 22 DAA BRAPP Obs,BRAPP,0%
same,Visual Weed Control (%) - 21 DAA IPOHE Obs,IPOHE; [1],0%
same,Visual Weed Control (%) - 21 DAA IPOHE Obs,IPOHE; [2],0%
"COC(=O)Nc1nc2ccccc2[nH]1 [Carbendazim, methyl benzimidazol-2-ylcarbamate, reference compound]",Visual Weed Control (%) - 19 DAA ECHCO Obs,"ECHCO; r12-13 carbendazim 125/250 g ai/ha alone, r14-19 ester 8/16/32 at each of 125, 250",0%
"COc1c(Cl)ccc(-c2nc(C(=O)O)c(Cl)c(N)c2F)c1F [Compound A Acid, 4-amino-3-chloro-5-fluoro-6-(4-chloro-2-fluoro-3-methoxy-phenyl)pyridine-2-carboxylic acid]",Visual Weed Control (%) - 22 DAA CYPRO Obs,CYPRO; Compound A Acid 10.6 g ae/ha,0%
same,Visual Weed Control (%) - 22 DAA CYPRO Obs,CYPRO; Compound A Acid 21.2 g ae/ha,25%
same,Visual Weed Control (%) - 22 DAA CYPRO Obs,CYPRO; Compound A Acid 42.4 g ae/ha,95%
"CC(C)Oc1cccc(NC(=O)c2ccccc2C(F)(F)F)c1 [Flutolanil, α,α,α-trifluoro-3′-isopropoxy-o-toluanilide, reference compound]",Visual Weed Control (%) - 19 DAA LEFCH Obs,"LEFCH; 19 DAA, r9-11 ester 8/16/32 g ae/ha alone, r12-13 flutolanil 280/560 g ai/ha alone, r14-19 ester 8/16/32 at each of 280, 560",0%
same,Visual Weed Control (%) - 19 DAA ECHCO Obs,"ECHCO; r12-13 flutolanil 280/560 g ai/ha alone, r14-19 ester 8/16/32 at each of 280, 560",0%
"CCCCC(C#N)(Cn1cncn1)c1ccc(Cl)cc1 (stereo not drawn) [Myclobutanil, 2-p-chlorophenyl-2-(1H-1,2,4-triazol-1-ylmethyl)hexanenitrile, reference compound]",Visual Weed Control (%) - 21 DAA LEFCH Obs,LEFCH; [3],0%
same,Visual Weed Control (%) - 21 DAA IPOHE Obs,IPOHE; [3],10%
"O=C1OCc2c(Cl)c(Cl)c(Cl)c(Cl)c21 [Phthalide, 4,5,6,7-tetrachlorophthalide]",Visual Weed Control (%) - 21 DAA ECHCG Obs,ECHCG,0%
"CCCC1COC(Cn2cncn2)(c2ccc(Cl)cc2Cl)O1 (stereo not drawn) [Propiconazole, 1-[2-(2,4-dichlorophenyl)-4-propyl-1,3-dioxolan-2-ylmethyl]-1H-1,2,4-triazole, reference compound]",Visual Weed Control (%) - 21 DAA DIGSA Obs,"DIGSA; r9-11 acid 5.3/10.6/21.2 g ae/ha alone, r12 propiconazole 190 g ai/ha alone, r13-15 acid 5.3/10.6/21.2 + 190",0%
"manganese ethylenebis(dithiocarbamate) (polymeric) complex with zinc salt [Mancozeb, reference compound]",Visual Weed Control (%) - 21 DAA LEFCH Obs,"LEFCH; r10-11 ester 16/32 g ae/ha alone, r12 mancozeb 840 g ai/ha alone, r13-14 ester 16/32 + 840",0%
same,Visual Weed Control (%) - 21 DAA IPOHE Obs,"IPOHE; r20-22 ester 8/16/32 g ae/ha alone, r23 mancozeb 1680 g ai/ha alone, r24-26 ester 8/16/32 + 1680",0%
